# Measured values as given in ChEMBL document CHEMBL5537152, “Targeted Degradation of PCSK9 In Vivo by Autophagy-Tethering Compounds” (J Med Chem, 2024).
# The source made the active and inactive calls. The rule behind the calls is not given here.
# How the values were obtained:
# [1] = system: Mus musculus; test: Antiatherosclerotic activity in hypercholesterolemic ApoE-/- mouse model assessed as decrease in TG accumulation in liver at 5 to 15 mg/kg/day, ip measured after 21 days; assay type: functional, organism-based; conditions: dose 5-15 mg/kg/day, time 21.0 day
# [2] = system: Mus musculus; test: Synergistic antiatherosclerotic activity in hypercholesterolemic ApoE-/- mouse model assessed as increase in liver LDLR at 5 to 15 mg/kg, ip administered daily for 3 weeks in presence of SIMV by Western blot analysis; assay type: functional, organism-based; conditions: dose 5-15 mg/kg
# [3] = system: Mus musculus; test: Synergistic antiatherosclerotic activity in hypercholesterolemic ApoE-/- mouse model assessed as decrease in vacuolization in liver at 5 to 15 mg/kg, ip administered daily for 3 weeks in presence of SIMV by H and E staining based analysis; assay type: functional, organism-based; conditions: dose 5-15 mg/kg
# [4] = system: Mus musculus; test: Effect on body weight in hypercholesterolemic ApoE-/- mouse model at 0.5 to 30 mg/kg/day, ip measured for 14 days; assay type: functional, organism-based; conditions: dose 0.5-30 mg/kg/day, time 14.0 day
# [5] = system: Mus musculus; test: Antiatherosclerotic activity in hypercholesterolemic ApoE-/- mouse model assessed as decrease in plaque area in […] at 5 to 15 mg/kg/day, ip measured after 21 days; assay type: functional, organism-based; conditions: dose 5-15 mg/kg/day, time 21.0 day
# [6] = system: Mus musculus; test: Synergistic antiatherosclerotic activity in hypercholesterolemic ApoE-/- mouse model assessed as decrease in liver fibrosis at 5 to 15 mg/kg, ip administered daily for 3 weeks in presence of SIMV by H and E staining based analysis; assay type: functional, organism-based; conditions: dose 5-15 mg/kg
# [7] = system: Huh-7; conditions: Homo sapiens, dose <= 100.0 nM
# Description: Inhibition of oxidative stress injury in PA/LPS-stimulated human Huh-7 cells assessed as decrease in triglyceride level upto 100 nM
# [8] = system: Mus musculus; test: Synergistic antiatherosclerotic activity in hypercholesterolemic ApoE-/- mouse model assessed as […] in liver IL-1beta level at 5 to 15 mg/kg, ip administered daily for 3 weeks in presence of SIMV by Western blot analysis; assay type: functional, organism-based; conditions: dose 5-15 mg/kg
# [9] = system: Mus musculus; test: Antiatherosclerotic activity in hypercholesterolemic ApoE-/- mouse model assessed as decrease in plasma LDL-C level administered intraperitoneally measured after 14 days; assay type: functional, organism-based; conditions: dose 15.0 mg/kg/day, route ip, time 14.0 day
# [10] = system: Huh-7; test: Effect on PCSK9 mRNA level in human Huh-7 cells at 20 to 500 nM incubated for 12 hrs by qRT-PCR analysis; assay type: functional, cell-based; conditions: dose 20-500 nM
# [11] = system: Mus musculus; test: Antiatherosclerotic activity in hypercholesterolemic ApoE-/- mouse model assessed as decrease in liver PCSK9 level at 5 to 15 mg/kg/day, ip measured after 21 days by Western blot analysis; assay type: functional, organism-based; conditions: dose 5-15 mg/kg/day, time 21.0 day
# [12] = system: Huh-7; test: Effect on LDLR mRNA level in human Huh-7 cells at 20 to 500 nM incubated for 12 hrs by qRT-PCR analysis; assay type: functional, cell-based; conditions: dose 20-500 nM
# [13] = system: Liver; test: In vivo induction of PCSK9 degradation in liver of hypercholesterolemic ApoE-/- mouse model at administered intraperitoneally daily for 3 weeks in presence of SIMV by Western blot analysis; assay type: functional, organism-based; conditions: dose 5-15 mg/kg, route ip
# [14] = system: Mus musculus; test: Antiatherosclerotic activity in hypercholesterolemic ApoE-/- mouse model assessed as decrease in vacuolization in liver at 5 to 15 mg/kg/day, ip measured after 21 days by H and E staining based analysis; assay type: functional, organism-based; conditions: dose 5-15 mg/kg/day, time 21.0 day
# [15] = system: Mus musculus; test: Antiatherosclerotic activity in hypercholesterolemic ApoE-/- mouse model assessed as increase in liver LDLR level administered intraperitoneally measured after 14 days; assay type: functional, organism-based; conditions: dose 15.0 mg/kg/day, route ip, time 14.0 day
# [16] = system: Mus musculus; test: Synergistic antiatherosclerotic activity in hypercholesterolemic ApoE-/- mouse model assessed as decrease in plasma LDL-C level at 15 mg/kg, ip administered daily for 3 weeks in presence of SIMV; assay type: functional; parameters: scale not given: the % may be the effect or the level left
# [17] = system: Mus musculus; test: Antiatherosclerotic activity in hypercholesterolemic ApoE-/- mouse model assessed as decrease in plasma LDL-C level administered intraperitoneally measured after 21 days; assay type: functional, organism-based; conditions: dose 5-15 mg/kg/day, route ip, time 21.0 day
# [18] = system: Mus musculus; test: Antiatherosclerotic activity in hypercholesterolemic ApoE-/- mouse model assessed as decrease in plaque area in aortic arch at 5 to 15 mg/kg/day, ip measured after 21 days by Aortic oil red O staining based analysis; assay type: functional, organism-based; conditions: dose 5-15 mg/kg/day, time 21.0 day
# [19] = system: Mus musculus; test: Antiatherosclerotic activity in hypercholesterolemic ApoE-/- mouse model assessed as decrease in oxidative stress at 5 to 15 mg/kg/day, ip measured after 21 days; assay type: functional, organism-based; conditions: dose 5-15 mg/kg/day, time 21.0 day
# [20] = system: Mus musculus; test: Antiatherosclerotic activity in hypercholesterolemic ApoE-/- mouse model assessed as decrease in plasma PCSK9 level at 5 to 15 mg/kg/day, ip measured after 21 days; assay type: functional, organism-based; conditions: dose 5-15 mg/kg/day, time 21.0 day
# [21] = system: Mus musculus; test: Synergistic antiatherosclerotic activity in hypercholesterolemic ApoE-/- mouse model assessed as effect on plasma LDH level at 5 to 15 mg/kg, ip administered daily for 3 weeks in presence of SIMV; assay type: functional, organism-based; conditions: dose 5-15 mg/kg
# [22] = system: Mus musculus; test: Antiatherosclerotic activity in hypercholesterolemic ApoE-/- mouse model assessed as increase in liver LDLR level at 5 to 15 mg/kg/day, ip measured after 21 days by immunohistochemistry analysis; assay type: functional, organism-based; conditions: dose 5-15 mg/kg/day, time 21.0 day
# [23] = system: Mus musculus; test: Antiatherosclerotic activity in hypercholesterolemic ApoE-/- mouse model assessed as decrease in liver damage at 5 to 15 mg/kg/day, ip measured after 21 days; assay type: functional, organism-based; conditions: dose 5-15 mg/kg/day, time 21.0 day
# [24] = system: Mus musculus; test: Synergistic antiatherosclerotic activity in hypercholesterolemic ApoE-/- mouse model assessed as decrease in liver cholesterol level at 5 to 15 mg/kg, ip administered daily for 3 weeks in presence of SIMV; assay type: functional, organism-based; conditions: dose 5-15 mg/kg
# [25] = system: Mus musculus; test: Antiatherosclerotic activity in hypercholesterolemic ApoE-/- mouse model assessed as decrease in liver fibrosis at 5 to 15 mg/kg/day, ip measured after 21 days by H and E staining based analysis; assay type: functional, organism-based; conditions: dose 5-15 mg/kg/day, time 21.0 day
# [26] = system: Mus musculus; test: Synergistic antiatherosclerotic activity in hypercholesterolemic ApoE-/- mouse model assessed as decrease in liver oxidative stress at 5 to 15 mg/kg, ip administered daily for 3 weeks in presence of SIMV; assay type: functional, organism-based; conditions: dose 5-15 mg/kg
# [27] = system: Mus musculus; test: Antiatherosclerotic activity in hypercholesterolemic ApoE-/- mouse model assessed as increase in liver LDLR level at 5 to 15 mg/kg/day, ip measured after 21 days by Western blot analysis; assay type: functional, organism-based; conditions: dose 5-15 mg/kg/day, time 21.0 day
# [28] = system: Huh-7; test: Effect on autophagic flux in human Huh-7 cells upto 100 nM incubated for 24 hrs by Western blot analysis; assay type: functional, cell-based
# [29] = system: Mus musculus; test: Synergistic antiatherosclerotic activity in hypercholesterolemic ApoE-/- mouse model assessed as increase in liver LDL uptake capacity at 5 to 15 mg/kg, ip administered daily for 3 weeks in presence of SIMV by Western blot analysis; assay type: functional, organism-based; conditions: dose 5-15 mg/kg
# [30] = system: Huh-7; test: Effect on LC3B level in human Huh-7 cells upto 100 nM incubated for 24 hrs by Western blot analysis; assay type: functional, cell-based
# [31] = system: Mus musculus; test: Antiatherosclerotic activity in hypercholesterolemic ApoE-/- mouse model assessed as decrease in vacuolization in liver at 5 to 15 mg/kg/day, ip measured after 21 days by Masson staining based analysis; assay type: functional, organism-based; conditions: dose 5-15 mg/kg/day, time 21.0 day
# [32] = system: Mus musculus; test: Synergistic antiatherosclerotic activity in hypercholesterolemic ApoE-/- mouse model assessed as effect on plasma MDA level at 5 to 15 mg/kg, ip administered daily for 3 weeks in presence of SIMV; assay type: functional, organism-based; conditions: dose 5-15 mg/kg
# [33] = system: Mus musculus; test: Antiatherosclerotic activity in hypercholesterolemic ApoE-/- mouse model assessed as decrease in liver fibrosis at 5 to 15 mg/kg/day, ip measured after 21 days by Masson staining based analysis; assay type: functional, organism-based; conditions: dose 5-15 mg/kg/day, time 21.0 day
# [34] = system: Mus musculus; test: Antiatherosclerotic activity in hypercholesterolemic ApoE-/- mouse model assessed as accumulation of cholesterol in liver at 5 to 15 mg/kg/day, ip measured after 21 days; assay type: functional, organism-based; conditions: dose 5-15 mg/kg/day, time 21.0 day
# [35] = system: Mus musculus; test: Synergistic antiatherosclerotic activity in hypercholesterolemic ApoE-/- mouse model assessed as effect on plasma TG level at 5 to 15 mg/kg, ip administered daily for 3 weeks in presence of SIMV; assay type: functional, organism-based; conditions: dose 5-15 mg/kg
# [36] = system: Mus musculus; test: Synergistic antiatherosclerotic activity in hypercholesterolemic ApoE-/- mouse model assessed as decrease in plaque area in aortic arch at 5 to 15 mg/kg, ip administered daily for 3 weeks in presence of SIMV by Aortic oil red O staining based analysis; assay type: functional, organism-based; conditions: dose 5-15 mg/kg
# [37] = system: Mus musculus; test: Synergistic antiatherosclerotic activity in hypercholesterolemic ApoE-/- mouse model assessed as decrease in liver fibrosis at 5 to 15 mg/kg, ip administered daily for 3 weeks in presence of SIMV by Masson staining based analysis; assay type: functional, organism-based; conditions: dose 5-15 mg/kg
# [38] = system: Mus musculus; test: Antiatherosclerotic activity in hypercholesterolemic ApoE-/- mouse model assessed as decrease in liver PCSK9 level administered intraperitoneally measured after 14 days; assay type: functional, organism-based; conditions: dose 15.0 mg/kg/day, route ip, time 14.0 day
# [39] = system: Mus musculus; test: Antiatherosclerotic activity in hypercholesterolemic ApoE-/- mouse model assessed as decrease in plasma triglyceride level administered intraperitoneally measured after 14 days; assay type: functional, organism-based; conditions: dose 15.0 mg/kg/day, route ip, time 14.0 day
# [40] = system: Huh-7; test: Effect on SREBP2 mRNA level in human Huh-7 cells at 20 to 500 nM incubated for 12 hrs by qRT-PCR analysis; assay type: functional, cell-based; conditions: dose 20-500 nM
# [41] = system: Mus musculus; test: Antiatherosclerotic activity in hypercholesterolemic ApoE-/- mouse model assessed as decrease in oxidative stress in liver at 5 to 15 mg/kg/day, ip measured after 21 days; assay type: functional, organism-based; conditions: dose 5-15 mg/kg/day, time 21.0 day
# [42] = system: Huh-7; test: Cytotoxicity against human Huh-7 cells upto 1000 nM incubated for 24 hrs by MTT assay; assay type: toxicity, cell-based; conditions: huh-7, 24 h, 1 µM
# [43] = system: Mus musculus; test: Synergistic antiatherosclerotic activity in hypercholesterolemic ApoE-/- mouse model assessed as decrease in vacuolization in liver at 5 to 15 mg/kg, ip administered daily for 3 weeks in presence of SIMV by Masson staining based analysis; assay type: functional, organism-based; conditions: dose 5-15 mg/kg
# [44] = system: Mus musculus; test: Antiatherosclerotic activity in hypercholesterolemic ApoE-/- mouse model assessed as decrease in liver PCSK9 level at 5 to 15 mg/kg/day, ip measured after 21 days by immunohistochemistry analysis; assay type: functional, organism-based; conditions: dose 5-15 mg/kg/day, time 21.0 day
# [45] = system: Mus musculus; test: Synergistic antiatherosclerotic activity in hypercholesterolemic ApoE-/- mouse model assessed as effect on plasma GSH level at 5 to 15 mg/kg, ip administered daily for 3 weeks in presence of SIMV; assay type: functional, organism-based; conditions: dose 5-15 mg/kg
# [46] = system: Mus musculus; test: Antiatherosclerotic activity in hypercholesterolemic ApoE-/- mouse model assessed as decrease in plasma TG level administered intraperitoneally measured after 21 days; assay type: functional, organism-based; conditions: dose 5-15 mg/kg/day, route ip, time 21.0 day
smiles,measurement,setting,value
COc1cc2c(cc1OCCCCN1C(=O)/C(=C\c3cc(Br)c(O)c(OC)c3)c3cc(Br)ccc31)C(C)(CC(=O)Nc1nccs1)NCC2 (stereo unspecified),Activity,[1],Active
same,Activity,[2],Active
same,Activity,[3],Active
same,Activity,[4],inactive
same,Activity,[5],Active
same,Activity,[6],Active
same,inhibition,[7],Active
same,Activity,[8],Active
same,Activity,[9],Dose-Dependent Effect
same,Activity,[10],inactive
same,Activity,[11],Active
same,Activity,[12],inactive
same,Activity,[13],Dose-Dependent Effect
same,Activity,[14],Active
same,Activity,[15],Dose-Dependent Effect
same,Activity,[16],<=47.36%
same,Activity,[17],Dose-Dependent Effect
same,Activity,[18],Active
same,Activity,[19],Active
same,Activity,[20],Active
same,Activity,[21],Active
same,Activity,[22],Active
same,Activity,[23],Active
same,Activity,[24],Active
same,Activity,[25],Active
same,Activity,[26],Active
same,Activity,[27],Active
same,Activity,[28],inactive
same,Activity,[29],Active
same,Activity,[30],inactive
same,Activity,[31],Active
same,Activity,[32],Active
same,Activity,[33],Active
same,Activity,[34],Active
same,Activity,[35],Active
same,Activity,[36],Active
same,Activity,[37],Active
same,Activity,[38],Dose-Dependent Effect
same,Activity,[39],Dose-Dependent Effect
same,Activity,[40],inactive
same,Activity,[41],Active
same,Activity,[42],Non-Toxic
same,Activity,[43],Active
same,Activity,[44],Active
same,Activity,[45],Active
same,Activity,[46],Dose-Dependent Effect
